Results published in US11466298B2, “Method for preparing phosphorylated keto polyols, derivatives thereof and uses thereof” (COMMISSARIAT A L'ENERGIE ATOMIQUE ET AUX ENERGIES …, priority 2017, dated 2022).

Key:
[1] = biological target: T1, aldolase (SEQ ID NO: 10), RhaD aldolase (Bacteroides thetaiotaomicron, UniProt Q8A1A0); experiment: Screening of ketones as acceptors with DHAP as donor, DHAP disappearance assay plus mass spectrometry; type: biochemical; conditions: for DHAP disappearance (%): 10 eq of ketone, 8 μmol DHAP, CoCl2, pH 7.5, RT, 5 h, under Ar; for acceptor of the enzyme when DHAP is the donor: SEQ ID NO: 10
T1 construct: made in house
Method: Enzyme corresponding to SEQ ID No 10 was purified for deeper characterization and a scale up was performed to analyze the new branched sugars. This aldolase was tested with DHAP as donor and various ketones under argon conditions to avoid oxidation of DHAP and cobalt ion (CoCl2) to optimize the activity. Conversion of the various reactions was determined by assaying DHAP disappearance using triose-phosphate-isomerase coupled with ca-glycerophosphate dehydrogenase enzymes. In addition the products of those reactions were analyzed by mass spectrometry. When the data from the two systems are in agreement, the compound is considered to be substrate of the enzyme.
(§1) Prior to the reaction, all the solutions and solids were degased by bubbling or circulating Ar. Under an Ar atmosphere, 1 mg of aldolase (SEQ ID NO: 10, 6.5 U), 8 μmol of DHAP (123 μL of 65 mM solution), 8 μL CoCl2 (10 mM), 10 eq of electrophile (selected ketone) and water to reach 200 μL final volume were added in a vial. The pH was adjusted to 7.5. The reaction mixture was gently stirred at RT for 5 h. DHAP disappearance was followed spectrophotometrically. The aldolase was removed by filtration over ultra-centrifugal filter unit (Amicon, 10 kDa). The reaction medium was directly analyzed by mass spectrometry (liquid chromatography (Alliance 2695—Waters) coupled to high resolution mass spectrometry (Micromass Q-TOF—Waters)).

[2] = test system: enzymes of SEQ ID NO:1-10 (RhaD); experiment: LC/MS Orbitrap validation of products from 6 ketones, RhaD enzymes; type: biochemical; conditions: 5 to 10 eq of ketone, CoCl2, pH 7.3, 5 h at RT, LC/MS detection
Method: (§2) A mother solution was prepared by mixing DHAP (5.2 mL, 35 mM), CoCl2 (200 μL, 10 mM), 5 to 10 eq of ketone, adjusted to pH 7.3 and degased under Ar. In 10 vials containing each 4 mg of enzyme to screen (beforehand degased under Ar) were added 400 μL of the mother solution. The reactions were gently stirred for 5 h at RT. The aldolase was removed by filtration over ultra-centrifugal filter unit (Amicon, 10 kDa). The reaction medium was analyzed by mass spectrometry.
(§3) The detection of the compounds of interest was performed by LC/ESI-MS method using a Dionex TCC-3000RS chromatographic system (Thermo Fisher Scientific, Courtaboeuf, France) coupled to an ultra-high resolution Orbitrap Elite hybrid mass spectrometer ((Thermo Fisher Scientific, Courtaboeuf, France) equipped with a HESI source.
(§4) A Sequant ZICpHILIC column […], 2.1×100 mm (Merck, Darmstadt, Germany) thermostated at 15° C. was employed for HPLC separation. Mobile phase flow rate was set at 0.2 ml/min, and injection volume was 5 μl. Aqueous solution of 10 mM (NH4)2CO3 (at a pH of 9.9 adjusted by NH4OH) was used as phase A and acetonitrile was used as solvent B. The following gradient conditions were applied for elution: 1 min equilibration step at 80% of phase B; 7 min linear gradient from 80 to 40% of phase B; 3 min isocratic elution at 40% of B, return to 80% of phase B in 3 min and a reconditioning step of 8.5 min.
(§5) Mass and product ion spectra were recorded in the ESI negative ion mode. Ion spray (IS) was set at −4.5 kV and capillary temperature at 275° C. Sheath gas, auxiliary gas and sweep gas flow rates were set at 60, 10 and 0 arbitrary units, respectively. The mass resolution power of the detector was 60000.
(§6) Raw data were manually inspected using the Qual-browser module of Xcalibur version 2.2 (Thermo Fisher Scientific, Courtaboeuf, France) for enzymes from SEQ ID NO:1 to 20 and SEQ ID NO:23 for DHAP+dihydroxyacetone, and for SEQ ID NO:1 to 10 for the other couples of reagents.

SEQ ID: 23 (FucA) = experiment: LC/MS Orbitrap validation of products from 6 ketones, FucA enzyme; type: biochemical, Kyrpidia tusciae; conditions: 5 to 10 eq of ketone, CoCl2, pH 7.3, 5 h at RT, LC/MS detection
Method: as §2, §3, §4, §5, §6

[3] = biological target: RhaD of various microorganisms including E. coli (Escherichia coli, UniProt P32169); experiment: Substrate spectrum of RhaD aldolases with respect to ketones; type: biochemical
[4] = test system: L-fuculose-1-phosphate aldolase (FucA) of SEQ ID NO:22-23, and 26-34; experiment: Aldol reaction of DHAP with dihydroxyacetone (DHA), FucA aldolases; type: biochemical; conditions: 10 eq of DHA, CoCl2, pH 7.5, RT, 5 h
Method: (§7) Aldolases were tested with DHAP as donor and DHA as acceptor. Cobalt ion (CoCl2) to was added to optimize the activity. Conversion of the reactions was determined by assaying DHAP disappearance using triose-phosphate-isomerase coupled with α-glycerophosphate dehydrogenase enzymes. In addition the products of those reactions were analyzed by mass spectrometry. When the data from the two systems are in agreement, DHA is considered to be substrate of the enzyme.
as §1, with “1” for “Prior to the reaction, all the solutions and solids were degased by bubbling or circulating Ar. Under an Ar atmosphere, 1”, “(RhaD, FucA or TagA),” for “(SEQ ID NO: 10, 6.5 U),”, “DHA” for “electrophile (selected ketone)”

[5] = biological target: T2, L-tagatose 1.6 biP aldolase (TagA) of SEQ ID NO:35 (Escherichia coli, UniProt P0AB74); experiment: Aldol reaction of DHAP with dihydroxyacetone (DHA), TagA aldolase; type: biochemical; conditions: 10 eq of DHA, CoCl2, pH 7.5, RT, 5 h
T2 construct: made in house
Method: as §7
as §1, with “1” for “Prior to the reaction, all the solutions and solids were degased by bubbling or circulating Ar. Under an Ar atmosphere, 1”, “(RhaD, FucA or TagA),” for “(SEQ ID NO: 10, 6.5 U),”, “DHA” for “electrophile (selected ketone)”

[6] = test system: RhaD aldolases of SEQ ID NO:1 to SEQ ID NO:21; experiment: Aldol reaction of DHAP with dihydroxyacetone (DHA), RhaD aldolases; type: biochemical; conditions: 10 eq of DHA, CoCl2, pH 7.5, RT, 5 h
Method: as §7
as §1, with “1” for “Prior to the reaction, all the solutions and solids were degased by bubbling or circulating Ar. Under an Ar atmosphere, 1”, “(RhaD, FucA or TagA),” for “(SEQ ID NO: 10, 6.5 U),”, “DHA” for “electrophile (selected ketone)”

[7] = test system: DHA aldolases (i.e. FSA of E. coli), deoc aldolase, class I DHAP aldolases and pyruvate aldolases; experiment: Aldol reaction of DHAP with DHA, aldolases not belonging to class II DHAP aldolases; type: biochemical; conditions: data not shown

T1 sequence (Q8A1A0 whole entry, change not shown): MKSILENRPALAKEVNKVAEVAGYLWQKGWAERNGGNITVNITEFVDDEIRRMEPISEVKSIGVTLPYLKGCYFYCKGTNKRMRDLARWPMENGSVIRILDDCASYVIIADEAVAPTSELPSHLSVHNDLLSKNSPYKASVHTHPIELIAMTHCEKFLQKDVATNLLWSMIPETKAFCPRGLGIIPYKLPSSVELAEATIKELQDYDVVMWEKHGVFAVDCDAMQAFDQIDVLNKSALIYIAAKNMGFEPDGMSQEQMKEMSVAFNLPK
RhaD of various microorganisms including E. coli, sequence (P32169 whole entry): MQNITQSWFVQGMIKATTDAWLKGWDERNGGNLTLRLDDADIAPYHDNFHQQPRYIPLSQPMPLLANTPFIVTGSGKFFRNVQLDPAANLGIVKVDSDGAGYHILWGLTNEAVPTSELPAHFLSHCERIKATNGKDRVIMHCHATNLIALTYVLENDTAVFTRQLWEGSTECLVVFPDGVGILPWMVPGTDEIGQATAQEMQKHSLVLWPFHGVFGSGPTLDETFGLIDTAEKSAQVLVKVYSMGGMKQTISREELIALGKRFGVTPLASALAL
T2 sequence (P0AB74 whole entry): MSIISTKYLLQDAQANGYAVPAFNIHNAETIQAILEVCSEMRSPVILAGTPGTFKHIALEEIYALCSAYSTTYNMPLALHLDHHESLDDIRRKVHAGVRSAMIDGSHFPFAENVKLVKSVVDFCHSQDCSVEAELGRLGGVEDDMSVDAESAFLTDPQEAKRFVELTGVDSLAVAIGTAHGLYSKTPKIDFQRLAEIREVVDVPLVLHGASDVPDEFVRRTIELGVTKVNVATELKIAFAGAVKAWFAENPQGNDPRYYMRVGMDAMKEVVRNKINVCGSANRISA

CC(=O)C(C)O (stereo not drawn)
DHAP disappearance (%) [1]: 96%

O=C(CO)Cc1ccccc1
DHAP disappearance (%) [1]: 71%

CC(=O)CC(C)=O
DHAP disappearance (%) [1]: 83%

CC(=O)C(=O)O
DHAP disappearance (%) [1]: 75%

O=C(CCl)CCl
DHAP disappearance (%) [1]: 72%

CCC(=O)CO [1-hydroxybutanone]
DHAP disappearance (%) [1]: 84%

O=C1CCCCC1O (stereo not drawn) [2-hydroxycyclohexanone]
ability of the tested RhaD to catalyze the reaction of DHAP with the ketone to form the expected product [2]: able to catalyze
DHAP disappearance (%) [1]: 84%
ability of the tested FucA to catalyze the reaction of DHAP with the ketone to form the expected product (SEQ ID: 23 (FucA)): able to catalyze

CC(=O)CCO [4-hydroxybutan-2-one]
acceptor of the enzyme when DHAP is the donor [1]: not acceptors

O=C(CO)[C@@H](O)CO [L-erythrulose]
ability of the tested RhaD to catalyze the reaction of DHAP with the ketone to form the expected product [2]: able to catalyze
DHAP disappearance (%) [1]: 100%
ability of the tested FucA to catalyze the reaction of DHAP with the ketone to form the expected product (SEQ ID: 23 (FucA)): able to catalyze

CC(=O)C(C)=O [butanedione]
ability of the tested RhaD to catalyze the reaction of DHAP with the ketone to form the expected product [2]: able to catalyze
DHAP disappearance (%) [1]: 100%
ability of the tested FucA to catalyze the reaction of DHAP with the ketone to form the expected product (SEQ ID: 23 (FucA)): able to catalyze

O=C1CCCC1 [cyclopentanone]
DHAP disappearance (%) [1]: 0%
acceptor of the enzyme when DHAP is the donor [1]: not acceptors
ability of RhaD to catalyze the reaction of DHAP with the ketone [3]: unable to catalyze

O=C(CO)CO [dihydroxyacetone]
ability of the enzymes to catalyse the reaction between DHAP and DHA [4]: same results
ability of the tested RhaD to catalyze the reaction of DHAP with the ketone to form the expected product [2]: able to catalyze
ability of the enzyme to catalyse the reaction between DHAP and DHA [5]: same results
DHAP disappearance (%) [1]: 100%
ability of the enzymes to catalyse the reaction between DHAP and DHA [6]: able to catalyse
ability of the tested FucA to catalyze the reaction of DHAP with the ketone to form the expected product (SEQ ID: 23 (FucA)): able to catalyze
ability of the enzymes to catalyse the reaction between DHA and DHAP [7]: failed to catalyze

CC(=O)CCO [drawing 99]
DHAP disappearance (%) [1]: 0%

O=C(O)C(=O)CO [hydroxypyruvate]
ability of the tested RhaD to catalyze the reaction of DHAP with the ketone to form the expected product [2]: able to catalyze
DHAP disappearance (%) [1]: 92%
ability of the tested FucA to catalyze the reaction of DHAP with the ketone to form the expected product (SEQ ID: 23 (FucA)): able to catalyze

acetone
DHAP disappearance (%) [1]: 0%
acceptor of the enzyme when DHAP is the donor [1]: not acceptors
ability of RhaD to catalyze the reaction of DHAP with the ketone [3]: unable to catalyze

butanone
DHAP disappearance (%) [1]: 0%
acceptor of the enzyme when DHAP is the donor [1]: not acceptors
ability of RhaD to catalyze the reaction of DHAP with the ketone [3]: unable to catalyze

hydroxyacetone
ability of the tested RhaD to catalyze the reaction of DHAP with the ketone to form the expected product [2]: able to catalyze
DHAP disappearance (%) [1]: 95%
ability of the tested FucA to catalyze the reaction of DHAP with the ketone to form the expected product (SEQ ID: 23 (FucA)): able to catalyze
